# In patent US5474988A, “5-phenylpyrrolo-1,4-benzoxazine and 5-phenylpyrrolo-1,4-benzothiazine compounds, process and intermediates for their production and pharmaceutical compositions containing them” (Kali-Chemie Pharma GmbH, priority 1993, dated 1995):
# Columns and labels:
# 5-lipoxygenase [1] = target: T1, 5-lipoxygenase (Cavia porcellus, UniProt A0A286X958); test: inhibitory activity on free 5-lipoxygenase concentrated from peritoneal PMNs of the guinea-pig (5-HETE formation); format: biochemical; details: 10^-5 mole/liter; guinea-pig 5-LO, 37° C.; read-out: In vitro % inhibitory activity on 5-HETE formation caused by free 5-LO
# T1 construct: The 5-LO was concentrated in a known manner from PMNs of male Dunkin-Hartley guinea-pigs; endogenous in cells; host or cells: peritoneal PMNs of male Dunkin-Hartley guinea-pigs, homogenized; 10,000 x g supernatant used as enzyme solution
# T1 sequence (A0A286X958 1-674): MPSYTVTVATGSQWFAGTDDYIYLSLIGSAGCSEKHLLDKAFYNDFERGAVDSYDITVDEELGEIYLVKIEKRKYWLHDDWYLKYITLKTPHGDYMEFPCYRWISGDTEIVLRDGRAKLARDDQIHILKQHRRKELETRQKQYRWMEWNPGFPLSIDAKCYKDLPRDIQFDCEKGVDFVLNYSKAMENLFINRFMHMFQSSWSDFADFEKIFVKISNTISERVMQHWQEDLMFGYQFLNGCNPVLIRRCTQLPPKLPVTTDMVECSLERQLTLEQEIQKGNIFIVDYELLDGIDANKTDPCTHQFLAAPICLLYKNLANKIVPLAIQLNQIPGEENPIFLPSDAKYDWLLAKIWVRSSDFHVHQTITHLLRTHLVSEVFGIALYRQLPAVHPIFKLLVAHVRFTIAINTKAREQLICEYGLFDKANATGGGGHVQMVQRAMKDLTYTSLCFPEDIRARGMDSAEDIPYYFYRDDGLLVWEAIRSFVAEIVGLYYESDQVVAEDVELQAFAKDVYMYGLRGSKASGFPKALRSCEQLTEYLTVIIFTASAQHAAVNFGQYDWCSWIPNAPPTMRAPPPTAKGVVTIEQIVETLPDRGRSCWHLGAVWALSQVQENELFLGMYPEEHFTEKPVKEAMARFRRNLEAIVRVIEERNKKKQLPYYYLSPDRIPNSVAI
# Description: 4b. In vitro determination of inhibitory activity on 5-lipoxygenase concentrated from peritoneal PMNs of the guinea-pig.
# An inhibition of 5-lipoxygenase can be caused by direct inhibitory action of the substances on the enzyme and/or by interference with the activation of the enzyme. While in test 4a the 5-lipoxygenase inhibition of the substances was investigated in rat PMN cells, in test 4b the inhibitory activity of the substances was investigated on free 5-LO concentrated from guinea-pig PMN cells according to the method of D. Aharony et al., J. Biol. Chem. 261 (1986), 11512-11519 (1986).
# The 5-LO was concentrated in a known manner from PMNs of male Dunkin-Hartley guinea-pigs (body weight 400 to 500 g) as follows. 10 ml of a solution containing 27.9 g/l of sodium thioglycolate were injected i.p. into the animals in order to induce the PMN invasion as a result of this inflammatory stimulus. After 22 hours, the animals were sacrificed by lethal ether anaesthesia. 70 ml of HBSS without Ca^++ and Mg^++ ions and containing 0.2% by weight of sodium citrate were then injected into the abdominal cavity. The cell suspension (>80% of the cells are PMNs) was withdrawn from the abdominal cavity, filtered through a cheese-making filter cloth, and washed twice with a 50 mM potassium phosphate buffer solution of pH 7.4, which contained 0.5 mM ethylenediaminetetraacetic acid, 1% by weight of gelatine and 20 μM indomethacin. The cells were resuspended, and the PMN suspension containing 10^8 cells/ml was homogenized three times for 15 seconds each in an ice-bath in a homogenizer of the Labsonic™ type set at high speed. The resulting suspension was centrifuged at 4° C. (15 minutes at 10,000×g). The supernatant liquid was used for the investigation as a solution of the free 5-LO enzyme.
# The experiments were carried out at 37° C. for 7 minutes using 0.625 ml samples of this enzyme solution. For the experiments, the enzyme solution (=equivalent of 2.5×10^7 cells), 0.5 mM glutathione, 1 mM ATP and 0.3 mM calcium chloride were added to test tubes. […] of the test substance were added to the samples dissolved in sufficient dimethylformamide such that the dimethylformamide concentration in each test tube is 0.5%. Only dimethylformamide was added to the control samples. After 2 minutes, the formation of 5-(S)-hydroxy-6,8,11,14-eicosatetraenoic acid (=[…]) was initiated by addition 10 μM arachidonic acid. After 5 minutes, the reaction was terminated by addition of 0.625 ml of a mixture of methyl acetate/methanol/0.2 m citric acid 15:2:0.5 v/v/v. 5-HETE was extracted twice using this solvent mixture. The 5-HETE-containing phases were combined and evaporated to dryness under a nitrogen atmosphere. The residue was taken up in a mixture of methanol/water/acetic acid 75:21:0.02 v/v/v having a pH of 5.7, and the solution was investigated for its content of 5-HETE by means of reverse phase HPLC. To accomplish this, a […] silanized silica gel column (Hichrom® ODS2, 250×4.6 mm) was employed as the adsorbent and a mixture of methanol/water/acetic acid 75:21:0.02 adjusted to pH 5.7 with ammonia and having a flow rate of 1 ml/min was used as the eluent. 5-HETE, which was eluted as a single peak after 20 minutes, was identified by comparison with standard solutions eluted at the same time and determined using a UV light detector at a wavelength of 235 nm. Quantitative determination was carried out by comparison of the peak area obtained with peak areas occurring in the calibrated standard solutions. From the 5-HETE contents of the samples determined, the inhibitory activity of the test substances was calculated in % inhibition of 5-HETE synthesis in comparison to the control samples containing no test substance.
# 5-lipoxygenase [2] = test: inhibition of 5-lipoxygenase activity in polymorphonuclear rat leucocytes (LTB4 formation); format: cell-based; details: 10^-5 mol/l; 22° C.
# Description: 4. In vitro determination of 5-lipoxygenase inhibition. 4a. In vitro determination of inhibition of 5-lipoxygenase activity in polymorphonuclear rat leucocytes. Arachidonic acid contained in cell membranes is released after activiation of the polymorphonuclear leucocytes (=PMN). During the course of this, under the action of the enzyme 5-lipoxygenase (=5-LO) arachidonic acid metabolites are synthesized which can be converted to leucotriene B4 (=LTB4) by LTA4 hydrolase. LTB4 is a principal metabolite of the arachidonic acid metabolism taking place on activation of the enzyme 5-LO by the inflammatory stimulus in the cell membrane. In in vitro systems, this metabolite is secreted from PMNs. […] To accomplish this, the content of LTB4 in a culture medium of rat peritoneal PMNs was determined after stimulation by calcimycin (=calcium-ionophore A23187) such as described by […] et al., Can. J. Physiol. Pharmacol. 67 (1989), 17. A cell suspension containing peritoneal PMNs of male Sprague-Dawley rats (body weight 200 to 250 g) was obtained in a known manner as follows: 6 ml of a solution containing 27.9 g/l of sodium thioglycolate were injected i.p. into the animals in order to induce the PMN invasion due to this inflammatory stimulus. After 22 hours, the animals were sacrificed by means of lethal ether anaesthesia. 20 ml of a Hank's salt solution (=Hank's Balanced Salt Solution=HBSS), but without Ca^++ and Mg^++ ions and with 0.2% by weight of sodium citrate, were then injected into the abdominal cavity. The suspension of accumulated cells was removed from the abdominal cavity and the cells were separated by centrifugation (10 minutes at 400×g). The cells were purified by repeated centrifugation in the presence of Ficoll-Paque®, (=metrizoic acid preparation, […], manufacturer Pharmacia), then washed twice with HBSS containing Ca^++ and Mg^++ ions and resuspended in HBSS containing Ca^ ++ and Mg^++ ions and buffered with 10 mM HEPES (=hydroxyethylpiperazinoethanesulfonic acid). In order to carry out the tests, samples of 0.7 ml of the PMN suspension (=0.5×10^6 cells) in each case were incubated for 15 minutes at 22° C. in plastic tubes containing 10 μM of the test substance in dimethylformamide or, as a control experiment, only containing dimethylformamide. The LTB4 synthesis was initiated in the samples by addition of calcimycin (final concentration 5 μm), and the samples were incubated for 10 minutes at 22° C. Only solvent was added to blank control samples. After 10 minutes, the reaction was terminated by addition of 0.3 ml of cold methanol. The samples were kept for 1 hour at 4° C. and then centrifuged (5 minutes at 10,000×g). The supernatant liquid was investigated to determine its LTB4 content by means of reverse phase high-pressure liquid chromatography (=reverse phase HPLC). […] The LTB4 was identified by comparison with authentic standard solutions eluting at the same time and determined at a wavelength of 270 nm. The LTB4 contents are determined from comparison with calibrated standard solutions, and from this the inhibitory activity of the test substances was calculated in % inhibition of the LTB4 synthesis in comparison with the control samples containing no test substance.
SMILES,inhibition at 10 µM (5-lipoxygenase [1]) [%],In vitro inhibitory activity on LTB4 formation in rat PMNs stimulated by calcium ionophore A23187 (5-lipoxygenase [2]) [%]
Cc1ccnc(N2CCN(CCCC3Cn4c(-c5cc(C)c(O)c(C)c5)c(C)c5cccc(c54)O3)CC2)c1 (stereo not shown) [Example 11],95,–
Cc1ccnc(N2CCN(CCCC3Cn4c(-c5ccc(O)cc5)c(C)c5cccc(c54)O3)CC2)c1 (stereo not shown) [Example 16],57,60
Cc1ccnc(N2CCN(CCC3Cn4c(-c5ccc(O)cc5)c(C)c5cccc(c54)S3)CC2)c1 (stereo not shown) [Example 21],30,42
COc1cc(-c2c(C)c3cccc4c3n2CC(CCN2CCN(c3ncccc3C)CC2)O4)ccc1O (stereo not shown) [Example 35],55,79
Cc1c(-c2ccc(O)cc2)n2c3c(cccc13)OC(CCC(=O)N1CCN(c3ccccn3)CC1)C2 (stereo not shown) [Example 36],65,89
COc1cc(-c2c(C)c3cccc4c3n2CC(CCC(=O)N2CCN(c3cc(C)ccn3)CC2)O4)ccc1O (stereo not shown) [Example 38],100,97
Cc1cc(-c2c(C)c3cccc4c3n2CC(CCN2CCC(N(C)c3nccc(=O)[nH]3)CC2)O4)cc(C)c1O (stereo not shown) [Example 40],56,82
Cc1ccnc(N2CCN(C(=O)CCC3Cn4c(-c5ccc(O)c(O)c5)c(C)c5cccc(c54)O3)CC2)c1 (stereo not shown) [Example 49],99,88
Cc1cc(-c2c(C)c3cccc4c3n2CC(CCN2CCN(c3ccccn3)CC2)O4)cc(C)c1O (stereo not shown) [Example 59],70,–
Cc1ccc(N2CCN(CCC3Cn4c(-c5cc(C)c(O)c(C)c5)c(C)c5cccc(c54)O3)CC2)nc1 (stereo not shown) [Example 62],77,56
COc1cc(-c2c(C)c3cccc4c3n2CC(CCCCN2CCN(c3cc(C)ccn3)CC2)S4)cc(C)c1O (stereo not shown) [Example 64],74,–
